# In patent US8846715B2, “(2S,3R)-N-(2((3-pyridinyl)methyl)-1-azabicyclo[2.2.2]oct-3-yl)benzofuran-2-carboxamide novel salt forms, and methods of use thereof” (Targacept, Inc., priority 2007, dated 2014):
# “Also recorded” adds a separate entry of the source.
# What was measured:
# [1] = Water solubility (salt screening); format: physicochemical
# Experimental: Thermodynamic Aqueous Solubility by HPLC
# The suspension was equilibrated at 25° C. for 24 h, and then the pH was measured. The suspension was then filtered through a glass fiber C filter into a 96 well plate. The filtrate was then diluted by a factor of 101. Quantitation was by HPLC with reference to a standard solution of approximately 0.1 mg/mL in DMSO. Different volumes of the standard, diluted and undiluted sample solutions were injected. The solubility was calculated using the peak areas determined by integration of the peak found at the same retention time as the principal peak in the standard injection. If there was sufficient solid in the filter plate, the XRPD was collected.
# [2] = Hygroscopicity (salt screening); format: physicochemical
# Experimental: Sorption isotherms were determined on either or both of two instruments. Some were experiments were run using a VTI Corporation SGA-100 moisture sorption analyzer, controlled by VTI FlowSystem 4 software. The sample temperature was maintained at 25° C. with the aid of a Polyscience constant temperature bath. The humidity was controlled by mixing streams of dry and wet nitrogen. The weight change as a function of % RH was monitored using a Cahn Digital Recording Balance D-200 with an accuracy of +/−0.0001 g.
# Typically a 10-20 mg sample was placed on the tared balance pan under ambient conditions. The sample was dried at 50° C. for 1 h. The standard adsorption isotherm was performed at 25° C. at 5% RH intervals over a 5-95% RH range, and the desorption isotherm was similarly done at 25° C. at 5% RH intervals over a 95-5% RH range. Sample equilibration criteria included 0.0100 wt % in 5 min or a maximum equilibration time of 180 min for each % RH data point.
# Some sorption isotherms were obtained using a Hiden IGASorp moisture sorption analyser, controlled by CFRSorp software. The sample temperature was maintained at 25° C. by a Huber re-circulating water bath. The humidity was controlled by mixing streams of dry and wet nitrogen, with a total flow rate of 250 mL/min. The relative humidity was measured by a calibrated Vaisala RH probe (dynamic range of 0-95% RH), located near the sample. The weight change, (mass relaxation) of the sample as a function of % RH was constantly monitored by the microbalance (accuracy ±0.001 mg). Typically 10-20 mg of sample was placed in a tared mesh stainless steel basket under ambient conditions. The sample was loaded and unloaded at 40% RH and 25° C. (typical ambient conditions). A moisture sorption isotherm was performed as outlined below (2 scans giving 1 complete cycle). The standard isotherm was performed at 25° C. at 10% RH intervals over a 0-90% RH range.
# The software uses a least squares minimization procedure together with a model of the mass relaxation, to predict an asymptotic value. The measured mass relaxation value must be within 5% of that predicted by the software, before the next % RH value is selected. The minimum equilibration time was set to 1 h and the maximum to 4 h. Typically, samples were recovered after completion of the isotherm and re-analyzed by XRPD.
# rats [3] = test: Object recognition (OR) paradigm; format: in vivo
# [4] = Radial arm maze (RAM) paradigm; format: in vivo; details: p.o. 30 minutes prior to daily session, 0.3 mg/kg, second week (FIG. 7)
# Text: FIG. 7 illustrates an assessment of cognitive effects in a radial arm maze (RAM) paradigm.
# mouse 5HT3 receptor = biological target: T1, mouse 5HT3 receptor (Mus musculus, UniProt P23979); test: Radioligand binding at mouse 5HT3 receptor; details: read-out: Inhibition of radioligand binding at mouse 5HT3 receptor
# T1 sequence (P23979 24-489): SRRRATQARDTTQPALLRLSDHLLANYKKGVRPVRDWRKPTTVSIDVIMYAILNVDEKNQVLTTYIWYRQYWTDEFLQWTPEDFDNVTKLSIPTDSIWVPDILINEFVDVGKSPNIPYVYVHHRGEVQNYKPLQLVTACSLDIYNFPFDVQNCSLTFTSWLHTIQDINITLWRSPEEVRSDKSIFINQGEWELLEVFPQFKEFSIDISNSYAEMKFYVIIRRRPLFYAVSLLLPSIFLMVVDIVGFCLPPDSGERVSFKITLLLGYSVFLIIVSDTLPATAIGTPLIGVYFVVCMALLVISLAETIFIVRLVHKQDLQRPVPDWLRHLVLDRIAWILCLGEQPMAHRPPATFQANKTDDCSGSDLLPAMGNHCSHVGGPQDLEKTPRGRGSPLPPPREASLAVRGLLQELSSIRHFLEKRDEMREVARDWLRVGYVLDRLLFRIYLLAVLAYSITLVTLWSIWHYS
# M1 muscarinic receptors = biological target: T2, M1 muscarinic receptors (Homo sapiens, UniProt P11229); test: Competitive binding inhibition, M1 muscarinic
# T2 sequence (P11229 1-460): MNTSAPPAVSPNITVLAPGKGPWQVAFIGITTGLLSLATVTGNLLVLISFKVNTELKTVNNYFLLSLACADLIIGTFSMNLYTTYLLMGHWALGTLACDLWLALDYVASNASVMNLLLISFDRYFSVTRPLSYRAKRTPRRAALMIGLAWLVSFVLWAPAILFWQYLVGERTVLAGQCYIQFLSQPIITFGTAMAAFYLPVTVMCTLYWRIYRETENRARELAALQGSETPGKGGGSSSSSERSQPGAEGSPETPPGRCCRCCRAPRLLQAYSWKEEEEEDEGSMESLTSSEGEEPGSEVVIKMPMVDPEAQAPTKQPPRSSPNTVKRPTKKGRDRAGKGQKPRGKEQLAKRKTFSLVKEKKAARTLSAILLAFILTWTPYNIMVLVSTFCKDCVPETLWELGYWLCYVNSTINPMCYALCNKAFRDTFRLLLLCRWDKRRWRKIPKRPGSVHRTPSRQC
# human α4β2 sub-type = human α4β2 sub-type (Homo sapiens, UniProt P17787+P43681); test: Electrophysiology, human α4β2 in Xenopus oocytes
# Sequence of human α4β2 sub-type (P43681 29-627 limits assumed): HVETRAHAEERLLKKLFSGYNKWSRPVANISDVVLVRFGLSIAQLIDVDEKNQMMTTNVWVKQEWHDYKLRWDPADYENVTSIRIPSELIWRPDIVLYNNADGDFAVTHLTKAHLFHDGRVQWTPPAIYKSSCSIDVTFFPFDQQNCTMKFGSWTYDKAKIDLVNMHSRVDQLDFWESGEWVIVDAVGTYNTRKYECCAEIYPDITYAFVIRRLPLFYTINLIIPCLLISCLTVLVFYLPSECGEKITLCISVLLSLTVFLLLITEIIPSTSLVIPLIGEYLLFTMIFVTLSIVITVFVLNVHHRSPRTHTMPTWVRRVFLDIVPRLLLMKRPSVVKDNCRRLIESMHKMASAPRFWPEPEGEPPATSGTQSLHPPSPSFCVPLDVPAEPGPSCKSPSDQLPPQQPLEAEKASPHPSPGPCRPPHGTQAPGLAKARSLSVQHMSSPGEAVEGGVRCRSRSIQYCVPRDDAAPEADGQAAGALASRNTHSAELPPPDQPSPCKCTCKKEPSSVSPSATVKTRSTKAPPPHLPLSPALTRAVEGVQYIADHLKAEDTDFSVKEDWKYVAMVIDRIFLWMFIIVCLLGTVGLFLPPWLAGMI
# Sequence of human α4β2 sub-type (P17787 26-502): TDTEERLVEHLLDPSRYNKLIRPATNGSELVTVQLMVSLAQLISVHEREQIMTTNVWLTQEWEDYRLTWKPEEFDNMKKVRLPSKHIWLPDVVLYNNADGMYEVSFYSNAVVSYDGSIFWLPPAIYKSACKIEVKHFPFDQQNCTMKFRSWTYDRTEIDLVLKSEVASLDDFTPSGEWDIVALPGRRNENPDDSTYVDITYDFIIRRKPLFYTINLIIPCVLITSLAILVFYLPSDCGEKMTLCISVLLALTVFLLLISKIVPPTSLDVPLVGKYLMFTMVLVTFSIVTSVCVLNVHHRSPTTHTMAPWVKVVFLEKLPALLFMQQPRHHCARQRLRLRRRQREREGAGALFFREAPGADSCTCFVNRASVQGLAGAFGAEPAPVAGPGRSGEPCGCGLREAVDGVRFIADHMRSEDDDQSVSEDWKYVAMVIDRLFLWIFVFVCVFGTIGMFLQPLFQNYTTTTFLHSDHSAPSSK
# rats [5] = details: 0.3 and 1.0 mg/kg s.c., apomorphine 1.0 mg/kg (FIG. 8)
# Experimental: The reversal of apomorphine-induced locomotor activity (APO LOCO) assay was performed in accord with the description of Roux et al., Curr.
# rats [6] = test: MK-801 induced deficits in the OR task; format: in vivo; details: 0.3 and 1 mg/kg i.p. (FIGS. 5A, 5B)
# α4β2 NNRs = α4β2 NNRs (Homo sapiens, UniProt P17787+P43681); test: Binding to α4β2 NNRs
# Sequence of α4β2 NNRs (P43681 29-627 limits assumed): as the sequence (P43681 29-627 limits assumed) above
# Sequence of α4β2 NNRs (P17787 26-502): as the sequence (P17787 26-502) above
# human 5HT3 receptor = biological target: T3, human 5HT3 receptor (Homo sapiens, UniProt P46098); test: Radioligand binding at human 5HT3 receptor; details: read-out: Inhibition of radioligand binding at human 5HT3 receptor
# T3 sequence (P46098 24-478): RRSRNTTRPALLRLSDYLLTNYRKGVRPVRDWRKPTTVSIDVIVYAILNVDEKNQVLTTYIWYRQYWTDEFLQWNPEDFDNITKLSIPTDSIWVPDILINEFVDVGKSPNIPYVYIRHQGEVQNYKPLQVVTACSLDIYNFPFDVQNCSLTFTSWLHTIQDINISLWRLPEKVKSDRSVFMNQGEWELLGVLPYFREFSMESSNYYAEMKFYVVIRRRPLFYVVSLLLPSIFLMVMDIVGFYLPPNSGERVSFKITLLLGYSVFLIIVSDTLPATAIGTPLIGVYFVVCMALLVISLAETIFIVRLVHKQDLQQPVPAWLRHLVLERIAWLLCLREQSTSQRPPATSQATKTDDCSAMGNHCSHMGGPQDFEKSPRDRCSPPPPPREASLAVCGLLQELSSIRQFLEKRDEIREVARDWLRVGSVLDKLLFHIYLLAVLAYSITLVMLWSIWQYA
# [7] = Pre-pulse inhibition (PPI), apomorphine-induced deficits; format: in vivo; details: subcutaneous pretreatment (FIG. 9)
# [8] = biological target: rat α7 NNRs stably expressed in GH4C1 (mammalian) cells (Rattus norvegicus, UniProt Q05941); test: Patch clamp electrophysiology, rat α7 NNR in GH4C1 cells
# Sequence of rat α7 NNRs stably expressed in GH4C1 (mammalian) cells (Q05941 23-502): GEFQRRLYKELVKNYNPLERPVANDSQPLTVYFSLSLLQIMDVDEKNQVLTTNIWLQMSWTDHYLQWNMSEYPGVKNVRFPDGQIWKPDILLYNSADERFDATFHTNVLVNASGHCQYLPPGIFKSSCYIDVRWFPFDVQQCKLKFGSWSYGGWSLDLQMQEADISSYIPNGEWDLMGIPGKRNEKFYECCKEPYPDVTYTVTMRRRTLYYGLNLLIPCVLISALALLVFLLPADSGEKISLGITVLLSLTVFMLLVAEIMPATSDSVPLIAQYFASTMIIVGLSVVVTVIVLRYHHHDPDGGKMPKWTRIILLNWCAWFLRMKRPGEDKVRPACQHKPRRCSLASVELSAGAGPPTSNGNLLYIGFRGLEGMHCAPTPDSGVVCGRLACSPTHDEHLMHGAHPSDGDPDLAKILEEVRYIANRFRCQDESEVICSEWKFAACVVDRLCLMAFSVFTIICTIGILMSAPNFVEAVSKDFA
# Experimental: Electrophysiological measurement of α7 NNR response were taken in two expression systems: rat α7 NNR in mammalian GH4C1 cells and human α7 NNR in Xenopus oocytes.
# Electrophysiological measurements of agonist activity were achieved using the Dynaflow rapid perfusion system and patch clamp using this GH4C1 cell expression system.
# Whole-cell currents recorded with an Axopatch 700A amplifier were filtered at 1 kHz and sampled at 5 kHz by a PCI card (National Instrument). […] Cells were recorded at room temperature in the following extracellular medium: 130 mM NaCl, 5 mM KCl, 2 mM CaCl2, 2 mM MgCl2, 10 mM HEPES, adjusted to pH 7.4 with aqueous NaOH. […] Under these conditions, the macro-current activity obtained with NNR whole-cell recording lasts up to 60 min when elicited with a 1000 μM acetylcholine (ACh) concentration.
# Cell handling procedures were adopted from Cellectricon application notes for Dynaflow. Briefly, after removal from the incubator, cells were washed thoroughly three times with recording medium and placed on the stage of a inverted Zeiss microscope. On average 5 min was necessary before the whole-cell recording configuration was established. To avoid modification of the cell conditions, a single cell was recorded per single load of cells into Dynaflow silicon chip. […] Cells were held at −60 mV throughout the experiment. […]
# human α7 NNRs = human α7 NNRs (Homo sapiens, UniProt P36544); test: cell-based; details: read-out: E. (Emax) of ACh response
# Sequence of human α7 NNRs (P36544 23-502): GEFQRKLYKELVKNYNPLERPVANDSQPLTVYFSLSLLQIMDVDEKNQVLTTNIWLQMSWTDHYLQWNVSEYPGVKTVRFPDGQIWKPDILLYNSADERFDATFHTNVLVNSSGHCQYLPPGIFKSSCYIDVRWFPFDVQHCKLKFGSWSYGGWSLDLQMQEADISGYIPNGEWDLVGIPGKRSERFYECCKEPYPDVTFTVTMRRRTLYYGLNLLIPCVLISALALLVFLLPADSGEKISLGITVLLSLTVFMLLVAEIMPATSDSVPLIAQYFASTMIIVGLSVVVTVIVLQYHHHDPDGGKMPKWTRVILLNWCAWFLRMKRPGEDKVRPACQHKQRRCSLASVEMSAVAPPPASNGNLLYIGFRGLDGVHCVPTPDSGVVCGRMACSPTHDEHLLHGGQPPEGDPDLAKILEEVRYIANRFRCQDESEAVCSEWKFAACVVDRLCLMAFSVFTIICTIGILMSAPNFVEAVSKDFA
# Experimental: Mature (>9 cm) female Xenopus laevis African toads (Nasco, Ft. Atkinson, Wis.) were used as a source of oocytes. Prior to surgery, the toads were anesthetized by placing the animal in a 1.5 g/L solution of 3-aminobenzoic acid ethyl ester for 30 min. Oocytes were removed from an incision made in the abdomen.
# Subsequently, stage 5 oocytes were isolated and injected with 50 mL (5-20 ng) each of the human α7 cRNA. Recordings were made 2 to 7 days after injection. Fresh acetylcholine (ACh) stock solutions were made daily in Ringer's solution.
# Experiments were conducted using OpusXpress 6000A (Axon Instruments, Union City Calif.). […]
# Each oocyte received an initial control application of ACh, then an experimental drug application, and then a follow-up control application of ACh (300 μM). Responses to experimental drug applications were calculated relative to the preceding ACh control responses in order to normalize the data, compensating for the varying levels of channel expression among the oocytes. […] Means and standard errors (SEM) were calculated from the normalized responses of at least four oocytes for each experimental concentration. For concentration-response relations, data derived from net charge analyses were plotted using Kaleidagraph 3.0.2 (Abelbeck Software; Reading, Pa.), and curves were generated from the Hill equation.
# M2 muscarinic receptors = biological target: T4, M2 muscarinic receptors (Homo sapiens, UniProt P08172); test: Competitive binding inhibition, M2 muscarinic
# T4 sequence (P08172 1-466): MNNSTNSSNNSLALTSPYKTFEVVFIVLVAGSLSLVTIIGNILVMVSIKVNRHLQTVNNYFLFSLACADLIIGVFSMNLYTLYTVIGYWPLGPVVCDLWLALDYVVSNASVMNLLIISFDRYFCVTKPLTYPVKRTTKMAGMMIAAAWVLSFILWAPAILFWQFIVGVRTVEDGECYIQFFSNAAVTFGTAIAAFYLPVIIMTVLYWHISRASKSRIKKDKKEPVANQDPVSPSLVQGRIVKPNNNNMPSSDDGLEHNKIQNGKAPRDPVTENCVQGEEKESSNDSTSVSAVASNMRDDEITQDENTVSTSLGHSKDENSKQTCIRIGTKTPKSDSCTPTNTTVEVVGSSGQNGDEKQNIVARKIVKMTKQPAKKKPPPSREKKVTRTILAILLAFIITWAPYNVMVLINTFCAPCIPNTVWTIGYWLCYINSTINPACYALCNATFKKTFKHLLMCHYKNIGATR
# [9] = Solid state stability by XRPD, 40° C./75% RH; format: physicochemical; details: 1 week at 40° C./75% RH
# Experimental: X-Ray Powder Diffraction patterns were collected either or both of two instruments. Some were collected on a Siemens D5000 diffractometer using CuKα radiation (40 kV, 40 mA), 0-0 goniometer, V20 divergence and receiving slits, a graphite secondary monochromator and a scintillation counter. The instrument was performance checked using a certified Corundum standard (NIST 1976). Samples run under ambient conditions were prepared as flat plate specimens using powder as received. Approximately 35 mg of the sample was gently packed into a cavity cut into polished, zero-background (510) silicon wafer. The sample was rotated in its own plane during analysis, scanning from 2° to 42° in steps of 0.05° at 4 seconds per step, using CuKα1 (λ=1.5406 Å).
# The tosylate salt, specifically the crystalline mono salt, was confirmed and the diffraction pattern is shown in FIG. 14 using CuKα radiation (40 kV, 40 mA), 0-0 goniometer, V20 divergence and receiving slits, a graphite secondary monochromator, and a scintillation counter. […] Likely, the change is due to a more hydrated form.
smiles,measurement,setting,value
O=C(N[C@@H]1C2CCN(CC2)[C@H]1Cc1cccnc1)c1cc2ccccc2o1.O=P(O)(O)O [phosphoric acid salt],Water solubility,[1],good water solubility
same,Hygroscopicity,[2],low hygroscopicity
O=C(N[C@@H]1C2CCN(CC2)[C@H]1Cc1cccnc1)c1cc2ccccc2o1.O=C(O)/C=C\C(=O)O [maleic acid salt],Water solubility,[1],good water solubility
same,Hygroscopicity,[2],low hygroscopicity
"O=C(N[C@@H]1C2CCN(CC2)[C@H]1Cc1cccnc1)c1cc2ccccc2o1 (single isomer, unassigned) [Compound A]",Duration of cognitive effects in OR,rats [3]; 0.3 mg/kg orally (FIG. 6),at least 18 hours
same,Time investigating novel versus familiar object,"rats [3]; 0.3 mg/kg p.o. sub-acute, 30 min, 2 h, 6 h and 18 h after final administration",significantly (P<0.05) more time investigating object B (novel) than object A (familiar)
same,"Cognitive effects in object recognition, i.p.","rats [3]; rats, 0.3 and 1 mg/kg i.p. (FIG. 3)",potent activity
same,"Cognitive effects in object recognition, p.o.","rats [3]; rats, p.o., 0.3-10 mg/kg (FIG. 4)",potent activity; also recorded: activity across a wide dose range
same,Performance in radial arm maze (working memory),[4],significantly increased the number of correct choices prior to error
same,inhibition at 10 µM,mouse 5HT3 receptor,59%
same,Interaction with M1 muscarinic receptors,M1 muscarinic receptors,minimal to no interaction
same,Activation of human α4β2,human α4β2 sub-type,no detectable activation
same,Decreases in subsequent control responses to ACh at α4β2,human α4β2 sub-type,no significant decreases
same,Effect on apomorphine-induced locomotor hyperactivity,rats [5],displays effectiveness in reversing apomorphine-induced locomotor activity
same,Effect on MK-801 induced deficits in the OR task,rats [6],tends to reverse MK-801 induced deficits
same,Water solubility,[1],very limited water solubility
same,Ki,α4β2 NNRs,> 2000 nM
same,inhibition at 10 µM,human 5HT3 receptor,25%
same,Effect on apomorphine-induced prepulse inhibition deficits,[7],displays effectiveness
same,Emax,"[8]; GH4-C1, read-out: Emax relative to acetylcholine (ACh)",93%
same,Functional activity at the α7 subtype,"[8]; rat α7 in GH4C1 cells, FIGS. 1A.2 and 1B",potent agonism throughout the concentration range of 1-50 nM
same,Emax,human α7 NNRs,100%
same,Interaction with M2 muscarinic receptors,M2 muscarinic receptors,minimal to no interaction
Cc1ccc(S(=O)(=O)O)cc1.O=C(N[C@@H]1C2CCN(CC2)[C@H]1Cc1cccnc1)c1cc2ccccc2o1 [p-toluenesulfonic acid salt],Water solubility,[1],good water solubility
same,XRPD form after storage,[9],reveals a change but the sample is still Form 1
same,Hygroscopicity,[2],low hygroscopicity
Cl.O=C(N[C@@H]1C2CCN(CC2)[C@H]1Cc1cccnc1)c1cc2ccccc2o1 [hydrochloric acid salt],Water solubility,[1],good water solubility
same,Hygroscopicity,[2],low hygroscopicity
